Measurements from patent publication US10053497B2, “Therapeutic epitopes and uses thereof” (OXFORD UNIVERSITY INNOVATION LIMITED, priority 2002, dated 2018).

Tests used:
[1] = system: PBMC of HLA-DQ2+ coeliac subjects; test: IFNγ ELISpot, comprehensive gliadin epitope mapping in HLA-DQ2+ coeliac subjects after gluten challenge; assay type: cell-based, human; conditions: for Mean (SEM) bioactivity of deamidated peptides as % of P04722 E85 / Bioactivity as percent of response to P04722 77-93 QE85: 20 μg/ml; for Mean (SEM) bioactivity of deamidated peptides as % of P04722 E85: HLA-DQ2 coeliac subjects C01-5; for IFNg ELISpot response compared to P04722 77-93 QE85 (SEQ ID NO: 27): mean (SEM): peptides grouped by structure; for Bioactivity as percent of response to P04722 77-93 QE85: tTG-deamidated, median, HLA-DQ2 coeliac subjects
Method in brief: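 PBMC (2-8×10^5/well) from HLA-DQ2+ coeliac subjects on gluten-free diet were taken before and on day 6/7 after 3-day bread challenge. They were incubated overnight with 20mer peptides or pools (20 μg/ml each), ± tTG deamidation (tTG 64 μg/ml in wells), in RPMI/10% human AB serum. Net sfc/million minus blank; single-peptide responses as % of P04722 77-93 QE85.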

PBMC of coeliac patients = test: ELISpot of the 652 peptides in patients challenged with wheat or rye; assay type: cell-based, human; conditions: for Dominance among individual peptide responses, rye: rye challenge
Excerpt: Dominance depends on wheat or rye. For wheat, dominant peptides include peptide numbers 89, 90 and 91 (referring to sequence numbers in Table 23) (SEQ ID NO: 195, SEQ ID NO:196 and SEQ ID NO:197 respectively). For rye, dominant peptides include peptide numbers 368, 369, 370, 371, and 372 (referring to sequence numbers in Table 23) (SEQ ID NO:474, SEQ ID NO:475, SEQ ID NO:476, SEQ ID NO:477 and SEQ ID NO:478 respectively).

Substance | Mean (SEM) bioactivity of deamidated peptides as % of P04722 E85 [1] | IFNg ELISpot response compared to P04722 77-93 QE85 (SEQ ID NO: 27): mean (SEM) [1] | Bioactivity as percent of response to P04722 77-93 QE85 [1] [%] | Activity after rye and wheat challenge (PBMC of coeliac patients) | Dominance among individual peptide responses, rye (PBMC of coeliac patients) | Dominance among individual peptide responses, wheat (PBMC of coeliac patients; wheat challenge)
636: Table 23 20mer, homologue of 626, SEQ ID NO:742 (PQQPQQPFPQPQQPIPVQPQ) [Peptide 636] | 51 (20) % | 51 (10) % | 51 | showed activity in both rye and wheat | – | –
371: Table 23 20mer, SEQ ID NO:477 (PQQQFIQPQQPFPQQPQQTY) [Peptide 371] | 22 (10) % | 22 (10) % | – | – | dominant | –
370: Table 23 20mer, SEQ ID NO:476 (PQQQFLQPQQPFPQQPQQPY) [Peptide 370] | 11 (5) % | – | – | – | dominant | –
635: Table 23 20mer, homologue of 396, SEQ ID NO:741 (PLQPQQPFPQQPQQPFPQPQ) [Peptide 635] | 19 (5) % | 19 (5) % | 19 | showed activity in both rye and wheat | – | –
91: Table 23 20mer, SEQ ID NO:197 (PQPFPPQLPYPQPQLPYPQP) [Peptide 91] | 89 (12) % | 89 (12) % | – | – | – | dominant
